Key:
[1] = system: Human immunodeficiency virus 1; assay: Antiviral activity against HIV1 3B in MT4 cells after 4 days by MTT method; type: functional, organism-based; details: Human immunodeficiency virus 1, 3B, MT4, 96 h
[2] = system: Human immunodeficiency virus 2; assay: Antiviral activity against HIV2 ROD in MT4 cells after 4 days by MTT method; type: functional, organism-based; details: Human immunodeficiency virus 2, ROD, MT4, 96 h
[3] = Cytotoxicity against MT4 cells after 4 days by MTT method; type: cell-based; details: human
[4] = Selectivity index, ratio of CC50 for MT4 cells to IC50 for HIV1 3B; type: functional

Row | SMILES | IC50 [1] | IC50 [2] | CC50 at 96 h [3] | Ratio CC50/IC50 [4]
1 | CCc1c(C(=O)c2cccc3ccccc23)n(COCC=C(C)C)c(=O)[nH]c1=O | 6.89 µM | > 36.4 µM | 36.4 µM | 5
2 | CC(C)c1c(C(=O)c2cccc3ccccc23)n(COCc2ccccc2)c(=O)[nH]c1=O | 0.11 µM | > 26.9 µM | 26.9 µM | 233
3 | CC(C)=CCn1c(C(=O)c2cccc3ccccc23)c(C)c(=O)[nH]c1=O | > 44.6 µM | > 131 µM | 44.6 µM | <1
4 | CC(=O)OC/C=C(\C)Cn1c(C(=O)c2cccc3ccccc23)c(C)c(=O)[nH]c1=O | 41.4 µM | > 200 µM | 200 µM | 5
5 | CCOCn1c(C(=O)c2cccc3ccccc23)c(C)c(=O)[nH]c1=O | 4.02 µM | > 51.7 µM | 51.7 µM | 13
6 | Cc1c(C(=O)c2cccc3ccccc23)n(COCc2ccccc2)c(=O)[nH]c1=O | 1.6 µM | > 45.6 µM | 45.6 µM | 29
7 | C=CCOCn1c(C(=O)c2cccc3ccccc23)c(C)c(=O)[nH]c1=O | 2.11 µM | > 131 µM | 131 µM | 62
8 | CCc1c(C(=O)c2cccc3ccccc23)n(C/C=C/C(=O)OC)c(=O)[nH]c1=O | 0.71 µM | > 38.6 µM | 38.6 µM | 54
9 | CCc1c(C(=O)c2cccc3ccccc23)n(CC2CC=CC2)c(=O)[nH]c1=O | 0.22 µM | > 18.6 µM | 18.6 µM | 84
10 | CCOCn1c(C(=O)c2cccc3ccccc23)c(CC)c(=O)[nH]c1=O | 0.28 µM | > 23 µM | 23 µM | 78
11 | CCc1c(C(=O)c2cccc3ccccc23)n(COCc2ccc([N+](=O)[O-])cc2)c(=O)[nH]c1=O | 0.54 µM | > 30.5 µM | 30.5 µM | 55
12 | C=CCOCn1c(C(=O)c2cccc3ccccc23)c(CC)c(=O)[nH]c1=O | 0.19 µM | > 45.6 µM | 45.6 µM | 243
13 | CCc1c(C(=O)c2cccc3ccccc23)n(CC#Cc2ccccc2)c(=O)[nH]c1=O | 0.21 µM | > 17 µM | 17 µM | 83
14 | CCc1c(C(=O)c2cccc3ccccc23)n(COCC2CC2)c(=O)[nH]c1=O | 0.93 µM | > 45.3 µM | 45.3 µM | 48
15 | Cc1c(C(=O)c2cccc3ccccc23)n(CC#Cc2ccccc2)c(=O)[nH]c1=O | 2.79 µM | > 29.9 µM | 29.9 µM | 11
16 | CC(C)=CCn1c(C(=O)c2cccc3ccccc23)c(C(C)C)c(=O)[nH]c1=O | 2.42 µM | > 30.8 µM | 30.8 µM | 13
17 | Cc1c(C(=O)c2cccc3ccccc23)n(COCC2CC2)c(=O)[nH]c1=O | 7.69 µM | > 77.6 µM | 77.6 µM | 10
18 | CCc1c(C(=O)c2cccc3ccccc23)n(COCc2ccccc2)c(=O)[nH]c1=O | 0.15 µM | > 38.6 µM | 38.6 µM | 257
19 | O=c1[nH]cnc2c1ncn2[C@H]1CC[C@@H](CO)O1 [DIDANOSINE] | – | – | ≥ 529 µM | >=98
20 | Cc1c(Sc2ccccc2)n(COCCO)c(=O)[nH]c1=O [HEPT] | – | > 406 µM | 405 µM | 80
